Reference: patent US12264156B2, “Compounds and pharmaceutical compositions thereof for the treatment of diseases” (GALAPAGOS NV, priority 2018, dated 2025)
pIC50: −log10 of the molar value.

Assays:
Format in all cases: biochemical
Settings in all cases: ADP-Glo SIK kinase assay
SIK1 = molecular target: T1, SIK1 (Homo sapiens, UniProt P57059); assay: ADP-Glo kinase assay, SIK1
T1 construct: purchased Carna Biosciences 02-131
Method in brief: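 Enzyme–substrate mix was started with ATP and incubated 120 min at RT. ADP formed was quantified by ADP-Glo: 40 min ATP depletion, then 30 min detection reagent converting ADP to ATP for luciferase luminescence, which rises with kinase activity. Controls: 1% DMSO and 10 μM staurosporine (final).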

SIK2 = molecular target: T2, SIK2 (Homo sapiens, UniProt Q9H0K1); assay: ADP-Glo kinase assay, SIK2
T2 construct: purchased ThermoFisher Scientific PV4792
T2 sequence (Q9H0K1 whole entry): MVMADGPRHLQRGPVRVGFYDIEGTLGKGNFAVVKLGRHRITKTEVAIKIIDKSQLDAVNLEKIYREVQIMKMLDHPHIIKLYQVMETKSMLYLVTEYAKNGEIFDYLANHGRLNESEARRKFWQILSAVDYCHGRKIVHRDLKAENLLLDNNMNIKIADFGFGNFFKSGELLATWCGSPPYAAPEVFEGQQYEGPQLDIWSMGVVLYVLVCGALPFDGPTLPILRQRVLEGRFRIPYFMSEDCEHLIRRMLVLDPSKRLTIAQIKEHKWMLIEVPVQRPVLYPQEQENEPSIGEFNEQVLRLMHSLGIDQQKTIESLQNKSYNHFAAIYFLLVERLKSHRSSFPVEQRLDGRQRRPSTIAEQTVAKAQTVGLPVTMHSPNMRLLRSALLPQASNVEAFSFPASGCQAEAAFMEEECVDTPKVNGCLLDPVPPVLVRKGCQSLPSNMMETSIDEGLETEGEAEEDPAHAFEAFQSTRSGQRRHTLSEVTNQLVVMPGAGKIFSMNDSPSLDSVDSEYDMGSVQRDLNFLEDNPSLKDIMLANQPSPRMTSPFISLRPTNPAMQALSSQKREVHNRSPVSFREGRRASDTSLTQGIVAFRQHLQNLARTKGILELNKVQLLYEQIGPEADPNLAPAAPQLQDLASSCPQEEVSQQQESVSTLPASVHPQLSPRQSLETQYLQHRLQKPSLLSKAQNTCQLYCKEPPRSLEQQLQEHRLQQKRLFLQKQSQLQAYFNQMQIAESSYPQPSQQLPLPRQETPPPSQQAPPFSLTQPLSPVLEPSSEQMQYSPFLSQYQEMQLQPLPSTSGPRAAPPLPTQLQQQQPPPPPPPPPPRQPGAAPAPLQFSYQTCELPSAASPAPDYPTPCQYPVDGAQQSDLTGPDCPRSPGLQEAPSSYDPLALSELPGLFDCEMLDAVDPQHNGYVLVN
Method in brief: (§1)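 ADP-Glo luminescent assay of ADP formed by SIK2 or SIK3 with substrate after ATP addition, 120 min at RT. Remaining ATP depleted 40 min, then ADP converted to ATP and read by luciferase luminescence after 30 min. Controls: 1% DMSO and 10 μM staurosporine (final).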

SIK3 = molecular target: T3, SIK3 (Homo sapiens, UniProt Q9Y2K2); assay: ADP-Glo kinase assay, SIK3
T3 construct: purchased SignalChem S12-11G-100
T3 sequence (Q9Y2K2 whole entry): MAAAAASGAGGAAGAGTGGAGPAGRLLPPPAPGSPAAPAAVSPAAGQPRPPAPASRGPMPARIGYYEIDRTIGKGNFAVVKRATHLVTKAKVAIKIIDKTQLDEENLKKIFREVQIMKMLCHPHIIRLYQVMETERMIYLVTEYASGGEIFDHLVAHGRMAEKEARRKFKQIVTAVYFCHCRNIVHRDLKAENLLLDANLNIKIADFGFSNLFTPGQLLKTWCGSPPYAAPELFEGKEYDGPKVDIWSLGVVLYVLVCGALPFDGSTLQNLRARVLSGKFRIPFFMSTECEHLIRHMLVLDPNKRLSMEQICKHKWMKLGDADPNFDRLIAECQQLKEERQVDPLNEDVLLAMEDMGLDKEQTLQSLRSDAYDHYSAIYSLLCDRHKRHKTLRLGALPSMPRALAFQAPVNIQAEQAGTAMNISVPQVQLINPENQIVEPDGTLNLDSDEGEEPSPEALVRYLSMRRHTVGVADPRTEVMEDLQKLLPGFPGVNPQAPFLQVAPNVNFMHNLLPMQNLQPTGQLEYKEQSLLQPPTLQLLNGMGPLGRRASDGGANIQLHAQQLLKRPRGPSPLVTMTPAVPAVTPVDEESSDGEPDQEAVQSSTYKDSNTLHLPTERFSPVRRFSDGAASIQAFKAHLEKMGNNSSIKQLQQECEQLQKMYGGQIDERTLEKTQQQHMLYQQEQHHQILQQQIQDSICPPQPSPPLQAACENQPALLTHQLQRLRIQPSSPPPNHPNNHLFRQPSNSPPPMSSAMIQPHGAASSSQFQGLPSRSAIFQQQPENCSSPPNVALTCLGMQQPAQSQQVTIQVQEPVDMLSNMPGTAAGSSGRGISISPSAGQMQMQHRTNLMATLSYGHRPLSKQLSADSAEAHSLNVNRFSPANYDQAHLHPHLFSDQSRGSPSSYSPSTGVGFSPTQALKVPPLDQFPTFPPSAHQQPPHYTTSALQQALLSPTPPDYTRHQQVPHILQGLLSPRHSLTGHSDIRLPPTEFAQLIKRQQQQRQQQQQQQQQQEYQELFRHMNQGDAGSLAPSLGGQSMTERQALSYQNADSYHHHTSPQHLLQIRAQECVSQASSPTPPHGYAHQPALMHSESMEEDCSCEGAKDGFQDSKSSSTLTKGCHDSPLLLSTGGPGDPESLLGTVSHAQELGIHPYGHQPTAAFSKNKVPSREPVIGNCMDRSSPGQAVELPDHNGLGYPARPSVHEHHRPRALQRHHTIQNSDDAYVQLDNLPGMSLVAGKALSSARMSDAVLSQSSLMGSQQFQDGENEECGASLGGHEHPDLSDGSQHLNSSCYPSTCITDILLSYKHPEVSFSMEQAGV
Method in brief: as §1

T1 sequence (P57059 whole entry): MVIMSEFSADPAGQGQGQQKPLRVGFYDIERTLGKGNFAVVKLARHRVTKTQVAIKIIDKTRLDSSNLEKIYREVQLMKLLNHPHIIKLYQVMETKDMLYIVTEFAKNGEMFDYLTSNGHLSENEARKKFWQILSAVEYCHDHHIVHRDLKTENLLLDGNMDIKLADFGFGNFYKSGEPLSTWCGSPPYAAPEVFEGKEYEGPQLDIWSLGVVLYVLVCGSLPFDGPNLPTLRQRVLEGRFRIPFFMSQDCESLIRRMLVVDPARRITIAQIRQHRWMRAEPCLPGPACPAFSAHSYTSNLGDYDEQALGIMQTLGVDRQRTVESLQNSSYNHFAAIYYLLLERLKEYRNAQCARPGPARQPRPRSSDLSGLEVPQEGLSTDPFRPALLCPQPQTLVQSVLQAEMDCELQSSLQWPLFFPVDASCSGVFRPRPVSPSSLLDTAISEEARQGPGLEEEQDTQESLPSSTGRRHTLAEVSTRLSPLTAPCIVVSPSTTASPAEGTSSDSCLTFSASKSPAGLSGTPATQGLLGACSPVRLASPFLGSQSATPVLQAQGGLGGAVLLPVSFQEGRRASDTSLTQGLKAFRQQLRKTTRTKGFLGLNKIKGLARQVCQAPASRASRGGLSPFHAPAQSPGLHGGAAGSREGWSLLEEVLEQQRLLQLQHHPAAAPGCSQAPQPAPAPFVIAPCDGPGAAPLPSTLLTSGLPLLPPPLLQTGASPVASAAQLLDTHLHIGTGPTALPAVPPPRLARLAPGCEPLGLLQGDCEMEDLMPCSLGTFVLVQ

pIC50 (SIK1) | pIC50 (SIK2) | pIC50 (SIK3) | SMILES
8.00 to 11.00 | 8.00 to 11.00 | 8.00 to 11.00 | COc1cc(-c2cnc3cc(OCCN(C)c4ccncc4)ccn23)cc(OC(F)F)c1C(=O)NC1CC1 [compound 223, N-cyclopropyl-2-(difluoromethoxy)-6-methoxy-4-[7-[2-[methyl(4-pyridyl)amino]ethoxy]imidazo[1,2-a]pyridin-3-yl]benzamide]
< 6.30 | < 6.30 | 7.00 to 8.00 | COCC(C)(C)Oc1ccn2c(-c3cc(OC)c(C(=O)NC4CC4)c(OC(F)F)c3)cnc2c1 [Cpd 260, N-cyclopropyl-2-(difluoromethoxy)-6-methoxy-4-[7-(2-methoxy-1,1-dimethyl-ethoxy)imidazo[1,2-a]pyridin-3-yl]benzamide]
7.00 to 8.00 | 7.00 to 8.00 | 8.00 to 11.00 | COc1cc(-c2cnc3cc(OC4CCOC4)ccn23)cc(OC(F)F)c1C(=O)NC1CC1 (stereo not drawn) [compound 163, N-cyclopropyl-2-(difluoromethoxy)-6-methoxy-4-(7-tetrahydrofuran-3-yloxyimidazo[1,2-a]pyridin-3-yl)benzamide]
7.00 to 8.00 | 8.00 to 11.00 | 8.00 to 11.00 | COc1cc(-c2cnc3cc(OCCCN4CCC(N(C)S(C)(=O)=O)CC4)ccn23)cc(OC(F)F)c1C(=O)NC1CC1 [compound 326, N-cyclopropyl-2-(difluoromethoxy)-6-methoxy-4-[7-[3-[4-[methyl(methylsulfonyl)amino]-1-piperidyl]propoxy]imidazo[1,2-a]pyridin-3-yl]benzamide]
7.00 to 8.00 | 8.00 to 11.00 | 8.00 to 11.00 | COc1cc(-c2cnc3cc(OCc4cccnc4)ccn23)cc(OC(F)F)c1C(=O)NC1CC1 [compound 43, N-cyclopropyl-2-(difluoromethoxy)-6-methoxy-4-[7-(3-pyridylmethoxy)imidazo [1,2-a]pyridin-3-yl]benzamide]
8.00 to 11.00 | 8.00 to 11.00 | 8.00 to 11.00 | COc1cc(-c2cnc3cc(OCC4CCCC4)ccn23)cc(OC(F)F)c1C(=O)NC1CC1 [compound 61, 4-[7-(cyclopentylmethoxy)imidazo[1,2-a]pyridin-3-yl]-N-cyclopropyl-2-(difluoromethoxy)-6-methoxy-benzamide]
7.00 to 8.00 | 8.00 to 11.00 | 8.00 to 11.00 | COc1cc(-c2cnc3cc(OCC4CCOC4)ccn23)cc(OC(F)F)c1C(=O)NC1CC1 (stereo not drawn) [compound 92, N-cyclopropyl-2-(difluoromethoxy)-6-methoxy-4-[7-(tetrahydrofuran-3-ylmethoxy)imidazo[1,2-a]pyridin-3-yl]benzamide]
7.00 to 8.00 | 8.00 to 11.00 | 8.00 to 11.00 | COc1cc(-c2cnc3cc(OCc4cnn(C)c4)ccn23)cc(OC(F)F)c1C(=O)NC1CC1 [compound 199, N-cyclopropyl-2-(difluoromethoxy)-6-methoxy-4-[7-[(1-methylpyrazol-4-yl)methoxy]imidazo[1,2-a]pyridin-3-yl]benzamide]
8.00 to 11.00 | 8.00 to 11.00 | 8.00 to 11.00 | COc1cc(-c2cnc3cc(OCC4CCCOC4)ccn23)cc(OC(F)F)c1C(=O)NC1CC1 (stereo not drawn) [compound 59, N-cyclopropyl-2-(difluoromethoxy)-6-methoxy-4-[7-(tetrahydropyran-3-ylmethoxy)imidazo[1,2-a]pyridin-3-yl]benzamide]
7.00 to 8.00 | 8.00 to 11.00 | 8.00 to 11.00 | COc1cc(-c2cnc3cc(OCCN4CCCC4)ccn23)cc(OC(F)F)c1C(=O)NC1CC1 [compound 20, N-cyclopropyl-2-(difluoromethoxy)-6-methoxy-4-[7-(2-pyrrolidin-1-ylethoxy)imidazo[1,2-a]pyridin-3-yl]benzamide]
7.00 to 8.00 | 8.00 to 11.00 | 8.00 to 11.00 | COc1cc(-c2cnc3cc(OCCOCCN4CCOCC4)ccn23)cc(OC(F)F)c1C(=O)NC1CC1 [compound 306, N-cyclopropyl-2-(difluoromethoxy)-6-methoxy-4-[7-[2-(2-morpholinoethoxy)ethoxy]imidazo[1,2-a]pyridin-3-yl]benzamide]
7.00 to 8.00 | 8.00 to 11.00 | 8.00 to 11.00 | COc1cc(-c2cnc3cc(OCCN(C)CC#N)ccn23)cc(OC(F)F)c1C(=O)NC1CC1 [compound 215, 4-[7-[2-[cyanomethyl(methyl)amino]ethoxy]imidazo[1,2-a]pyridin-3-yl]-N-cyclopropyl-2-(difluoromethoxy)-6-methoxy-benzamide]
7.00 to 8.00 | 7.00 to 8.00 | 8.00 to 11.00 | COc1cc(-c2cnc3cc(OCC4COCCN4C)ccn23)cc(OC(F)F)c1C(=O)NC1CC1 (stereo not drawn) [compound 201, N-cyclopropyl-2-(difluoromethoxy)-6-methoxy-4-[7-[(4-methylmorpholin-3-yl)methoxy]imidazo[1,2-a]pyridin-3-yl]benzamide]
8.00 to 11.00 | 8.00 to 11.00 | 8.00 to 11.00 | COc1cc(-c2cnc3cc(OCCN(CC(F)F)C4CC4)ccn23)cc(OC(F)F)c1C(=O)NC1CC1 [compound 235, N-cyclopropyl-4-[7-[2-[cyclopropyl (2,2-difluoroethyl)amino]ethoxy]imidazo [1,2-a]pyridin-3-yl]-2-(difluoromethoxy)-6-methoxy-benzamide]
7.00 to 8.00 | 8.00 to 11.00 | 8.00 to 11.00 | COc1cc(-c2cnc3cc(OCC(F)(F)CN)ccn23)cc(OC(F)F)c1C(=O)NC1CC1 [compound 364, 4-[7-(3-amino-2,2-difluoro-propoxy)imidazo[1,2-a]pyridin-3-yl]-N-cyclopropyl-2-(difluoromethoxy)-6-methoxy-benzamide]
6.30 to 7.00 | 7.00 to 8.00 | 8.00 to 11.00 | COc1cc(-c2cnc3cc(OCC4(C)CNC4)ccn23)cc2c1C(=O)N(CC(F)(F)F)CC2 [Cpd 251, 8-methoxy-6-[7-[(3-methylazetidin-3-yl)methoxy]imidazo [1,2-a]pyridin-3-yl]-2-(2,2,2-trifluoroethyl)-3,4-dihydroisoquinolin-1-one]
7.00 to 8.00 | 8.00 to 11.00 | 8.00 to 11.00 | COc1cc(-c2cnc3cc(OCCN4CCN(CCO)CC4)ccn23)cc(OC(F)F)c1C(=O)NC1CC1 [compound 308, N-cyclopropyl-2-(difluoromethoxy)-4-[7-[2-[4-(2-hydroxyethyl)piperazin-1-yl]ethoxy]imidazo[1,2-a]pyridin-3-yl]-6-methoxy-benzamide]
7.00 to 8.00 | 8.00 to 11.00 | 8.00 to 11.00 | COc1cc(-c2cnc3cc(OCc4cccnn4)ccn23)cc(OC(F)F)c1C(=O)NC1CC1 [compound 226, N-cyclopropyl-2-(difluoromethoxy)-6-methoxy-4-[7-(pyridazin-3-ylmethoxy)imidazo[1,2-a]pyridin-3-yl]benzamide]

SMILES | pIC50 (SIK1) | pIC50 (SIK2) | pIC50 (SIK3)
COc1cc(-c2cnc3cc(OC[C@@H](N)CC(C)C)ccn23)cc(OC(F)F)c1C(=O)NC1CC1 [compound 132, 4-[7-[(2S)-2-amino-4-methyl-pentoxy]imidazo[1,2-a]pyridin-3-yl]-N-cyclopropyl-2-(difluoromethoxy)-6-methoxy-benzamide] | 7.00 to 8.00 | 8.00 to 11.00 | 8.00 to 11.00
CCC(N)COc1ccn2c(-c3cc(OC)c(C(=O)NC4CC4)c(OC(F)F)c3)cnc2c1 (stereo not drawn) [compound 131, 4-[7-(2-aminobutoxy)imidazo[1,2-a]pyridin-3-yl]-N-cyclopropyl-2-(difluoromethoxy)-6-methoxy-benzamide] | 7.00 to 8.00 | 8.00 to 11.00 | 8.00 to 11.00
